In ChEMBL document CHEMBL1201862, “PubChem BioAssay data set” (2004):
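Briefly, cells in 96-well plates were exposed to five compound concentrations for 48 h, and endpoints were estimated by linear interpolation. GI50 = concentration required for 50% inhibition of growth.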 Activity calls are given as the source filed them. No stated cut-off is given here; in the data, active = GI50 up to about 1.1 µM and inactive = higher.

What was measured:
Assay in all cases: inhibition of tumour cell growth, NCI panel, 48 h
NCI-H226 = system: NCI-H226
HCT-15 = system: HCT-15
EKVX = system: EKVX
UACC-62 = system: UACC-62
OVCAR-8 = system: OVCAR-8
MDA-N = system: MDA-N
SN12C = system: SN12C
T47D = system: T47D
SNB-75 = system: SNB-75
TK-10 = system: TK-10
BT-549 = system: BT-549
SF-268 = system: SF-268
SR = system: SR
CAKI-1 = system: CAKI-1
HOP-62 = system: HOP-62
M14 = system: M14
SK-MEL-5 = system: SK-MEL-5
RPMI-8226 = system: RPMI-8226
SF-295 = system: SF-295
SW-620 = system: SW-620
UACC-257 = system: UACC-257
HL-60 = system: HL-60
SK-MEL-28 = system: SK-MEL-28
IGROV-1 = system: IGROV-1
HCT-116 = system: HCT-116
CCRF-CEM = system: CCRF-CEM
COLO 205 = system: COLO 205
HT-29 = system: HT-29
PC-3 = system: PC-3
OVCAR-5 = system: OVCAR-5
MOLT-4 = system: MOLT-4
OVCAR-3 = system: OVCAR-3
ACHN = system: ACHN
HOP-92 = system: HOP-92
Hs-578T = system: Hs-578T
MDA-MB-231 = system: MDA-MB-231
SNB-19 = system: SNB-19
NCI-H460 = system: NCI-H460
MDA-MB-435 = system: MDA-MB-435
SK-MEL-2 = system: SK-MEL-2
UO-31 = system: UO-31
NCI-H23 = system: NCI-H23
KM12 = system: KM12
NCI/ADR-RES = system: NCI/ADR-RES
DU-145 = system: DU-145
MCF7 = system: MCF7
A549 = system: A549
LOX IMVI = system: LOX IMVI
K562 = system: K562
SF-539 = system: SF-539
U-251 = system: U-251
SK-OV-3 = system: SK-OV-3
786-0 = system: 786-0
A498 = system: A498
HCC 2998 = system: HCC 2998
Malme-3M = system: Malme-3M
RXF 393 = system: RXF 393
NCI-H522 = system: NCI-H522
OVCAR-4 = system: OVCAR-4

CC(=O)C(=NNc1ccc(-n2c(C)nc3ccc(Br)cc3c2=O)cc1)C(C)=O
GI50 (NCI-H226): 72.9 µM (inactive)
GI50 (HCT-15): > 100 µM
GI50 (EKVX): > 100 µM (inactive)
GI50 (UACC-62): 82.4 µM (inactive)
GI50 (OVCAR-8): 53.7 µM (inactive)
GI50 (MDA-N): > 100 µM (inactive)
GI50 (SN12C): > 100 µM (inactive)
GI50 (T47D): > 100 µM (inactive)
GI50 (SNB-75): 20.7 µM (inactive)
GI50 (TK-10): 56.9 µM (inactive)
GI50 (BT-549): > 100 µM (inactive)
GI50 (SF-268): 56.4 µM (inactive)
GI50 (SR): > 100 µM (inactive)
GI50 (CAKI-1): > 100 µM (inactive)
GI50 (HOP-62): 35.8 µM (inactive)
GI50 (M14): > 100 µM (inactive)
GI50 (SK-MEL-5): 65.6 µM (inactive)
GI50 (RPMI-8226): 50.4 µM (inactive)
GI50 (SF-295): 98.6 µM (inactive)
GI50 (SW-620): > 100 µM (inactive)
GI50 (UACC-257): > 100 µM (inactive)
GI50 (HL-60): > 100 µM (inactive)
GI50 (SK-MEL-28): > 100 µM (inactive)
GI50 (IGROV-1): > 100 µM (inactive)
GI50 (HCT-116): 88.3 µM (inactive)
GI50 (CCRF-CEM): > 100 µM (inactive)
GI50 (COLO 205): > 100 µM (inactive)
GI50 (HT-29): > 100 µM (inactive)
GI50 (PC-3): 73.8 µM (inactive)
GI50 (OVCAR-5): > 100 µM (inactive)
GI50 (MOLT-4): > 100 µM (inactive)
GI50 (OVCAR-3): > 100 µM (inactive)
GI50 (ACHN): 98.4 µM (inactive)
GI50 (HOP-92): 74.3 µM (inactive)
GI50 (Hs-578T): 26.7 µM (inactive)
GI50 (MDA-MB-231): 37.2 µM (inactive)
GI50 (SNB-19): 45.6 µM (inactive)
GI50 (NCI-H460): > 100 µM (inactive)
GI50 (MDA-MB-435): > 100 µM (inactive)
GI50 (SK-MEL-2): > 100 µM (inactive)
GI50 (UO-31): > 100 µM (inactive)
GI50 (NCI-H23): 70.8 µM (inactive)
GI50 (KM12): > 100 µM (inactive)
GI50 (NCI/ADR-RES): 54.1 µM (inactive)
GI50 (DU-145): 93.8 µM (inactive)
GI50 (MCF7): > 100 µM (inactive)
GI50 (A549): > 100 µM (inactive)
GI50 (LOX IMVI): > 100 µM (inactive)
GI50 (K562): > 100 µM (inactive)
GI50 (SF-539): 47.3 µM (inactive)
GI50 (U-251): 58.2 µM (inactive)
GI50 (SK-OV-3): > 100 µM (inactive)
GI50 (786-0): 33.7 µM (inactive)
GI50 (A498): > 100 µM (inactive)

COC(=O)/C(=C\c1ccco1)P(=O)(OC)OC
GI50 (NCI-H226): 58.3 µM (inactive)
GI50 (HCT-15): 75.5 µM
GI50 (EKVX): 43.3 µM (inactive)
GI50 (UACC-62): 47.6 µM (inactive)
GI50 (OVCAR-8): 31.5 µM (inactive)
GI50 (MDA-N): 56.1 µM (inactive)
GI50 (SN12C): 39.9 µM (inactive)
GI50 (T47D): > 100 µM (inactive)
GI50 (SNB-75): 35.2 µM (inactive)
GI50 (HCC 2998): > 100 µM (inactive)
GI50 (TK-10): > 100 µM (inactive)
GI50 (BT-549): 26.6 µM (inactive)
GI50 (SF-268): 97.3 µM (inactive)
GI50 (SR): 52.8 µM (inactive)
GI50 (CAKI-1): 25.2 µM (inactive)
GI50 (HOP-62): 25.4 µM (inactive)
GI50 (M14): 55.7 µM (inactive)
GI50 (SK-MEL-5): 62.4 µM (inactive)
GI50 (RPMI-8226): 67.8 µM (inactive)
GI50 (SF-295): 20 µM (inactive)
GI50 (SW-620): 89.5 µM (inactive)
GI50 (UACC-257): 65.8 µM (inactive)
GI50 (Malme-3M): 16.4 µM (inactive)
GI50 (SK-MEL-28): 52.8 µM (inactive)
GI50 (IGROV-1): > 100 µM (inactive)
GI50 (HCT-116): 44 µM (inactive)
GI50 (CCRF-CEM): 30.5 µM (inactive)
GI50 (RXF 393): 24.4 µM (inactive)
GI50 (COLO 205): > 100 µM (inactive)
GI50 (HT-29): 25.9 µM (inactive)
GI50 (PC-3): 73.5 µM (inactive)
GI50 (OVCAR-5): 16.2 µM (inactive)
GI50 (MOLT-4): > 100 µM (inactive)
GI50 (OVCAR-3): 26.9 µM (inactive)
GI50 (ACHN): 29.4 µM (inactive)
GI50 (HOP-92): 25.2 µM (inactive)
GI50 (Hs-578T): 54.1 µM (inactive)
GI50 (MDA-MB-231): 38.8 µM (inactive)
GI50 (SNB-19): 65.2 µM (inactive)
GI50 (NCI-H460): 48.3 µM (inactive)
GI50 (MDA-MB-435): 34.8 µM (inactive)
GI50 (NCI-H522): 2.49 µM (inactive)
GI50 (SK-MEL-2): 30.9 µM (inactive)
GI50 (NCI-H23): 30.5 µM (inactive)
GI50 (OVCAR-4): 17.8 µM (inactive)
GI50 (KM12): > 100 µM (inactive)
GI50 (NCI/ADR-RES): 24.5 µM (inactive)
GI50 (DU-145): 80.9 µM (inactive)
GI50 (MCF7): 17.4 µM (inactive)
GI50 (A549): 85.1 µM (inactive)
GI50 (LOX IMVI): 19.9 µM (inactive)
GI50 (K562): > 100 µM (inactive)
GI50 (SF-539): 32.5 µM (inactive)
GI50 (U-251): 41 µM (inactive)
GI50 (SK-OV-3): 73.6 µM (inactive)
GI50 (786-0): 47.4 µM (inactive)
GI50 (A498): 54.3 µM (inactive)
